Consider 16 compounds from US4791114A, “2-Benzimidazolylalkylthio (or -sulfinyl or -sulfonyl) derivatives, their preparation and their application as medicinal products” (501 Laboratorios Del, Dr. Esteve, priority 1986, dated 1988).

One series relates to gastric acid secretion. Briefly: Inhibition of gastric acid secretion in Shay rats (pylorus ligation). Format: in vivo, male Wistar rats. Particulars: Rattus norvegicus, 2 h, intraduodenal, two hours after pylorus ligation; for inhibition in vivo at 40 mg/kg: i.d., read-out: Percentage inhibition of gastric acid secretion. The source says: Method of Shay [Shay, H.; Komarov, S. A.; Feis, S. S.; Merange, D.; Grvenstein, M.; Siplet, H.; Gastroenterology, 5, 43 (1945)--Visscher, F. E.; Seay, P. H.; Taxelaar, A. P.; Veldkamp, W.; Vander Brook, M. J.; J. Pharmac. Exp. Ther., 110, 188 (1954)--"Animal Experiments in Pharmacological Analysis", F. R. Domer; C. C. Thomas Pub., Springfield, Ill., USA, 1970, p. 140].
In this test, male Wistar rats weighing 200 to 250 grams are used, the animals being maintained fasted from the day preceding that of the trail, with access to water ad libitum. A minimum of 4 animals is used in each batch.
The rats are anesthetized with ethyl ether, laporotomy is performed and the pylorus is ligated, and the abdominal incision is then sutured. The administration of the products, with the vehicle for the control batch, is performed intraduodenally (i.d.) before the abdominal incision is sutured. The dose administered for the first trail is 40 mg/kg, and the fifty percent effectove dose (ED50) i.d. is also determined in a second trial. The vehicle used is 5% w/v gum arabic in double-distilled water.
Two hours after ligation of the pyrolus, the rats are sacrificed by prolonged anesthesia with ethyl ether, and the volume of the gastric juice is measured and the total acidity determined by means of a pH meter equipped with an automatic burette. For each product and for each dose tested, the percentage inhibition of gastric acid secretion is determined relative to the control batch.

Series [1] is described as follows: Acute toxicity in mice (oral LD50, Litchfield and Wilcoxon). Particulars: mouse, in vivo, suspended in 5% gum arabic. Here is the method: Method of Litchfield and wilcoxon [Litchfield, J. T. and Wilcoxon, E. J., H. Pharmacol. Exp. Therap., 96, 19-113 (1949)].
The product is administered orally, suspended in 5% gum arabic in double-distilled water. The volume administered is 10 ml/kg. The fifty percent lethal dose (LD50) is calculated according to the method cited.

The structures appear in SMILES notation.

As a reminder, the ED50 is the dose at which the effect has come halfway, by size or by number of responders. A lower ED50 goes with an effect at a small dose. Usually LD50 stands for the dose expected to kill half of the subjects tested. Low readings indicate greater toxicity, high ones lower toxicity. The compound `c1cnc(SCc2nc3ccccc3[nH]2)nc1` [Example 1, 2-(2-benzimidazolylmethylthio)pyrimidine] came in with a 50% effective dose (ED50) with gastric acid secretion of 13 mg/kg. Besides, the inhibition in vivo at 40 mg/kg in the series with gastric acid secretion turned out to be 98%. Further, the median lethal dose (LD50) came out at 2700 mg/kg in series [1] (female mice) and 3200 mg/kg in series [1] (male mice).
For `Cc1cc(C)nc(SCc2nc3ccccc3[nH]2)n1` [Example 3] the same measures were 16 mg/kg, 88%, over 3200 mg/kg and over 3200 mg/kg.
As to `O=[N+]([O-])c1ccc(SCc2nc3ccccc3[nH]2)nc1` [Example 4], in the series with gastric acid secretion, the 50% effective dose (ED50) worked out at 21 mg/kg and the inhibition in vivo at 40 mg/kg came out at 74%.
Take `Cc1cc2nc(CSc3ccccn3)[nH]c2cc1C` [Example 6, 5,6-dimethyl-2-(2-pyridylthiomethyl)benzimidazole]: in the series on gastric acid secretion, the median effective dose (ED50) was found to be 19 mg/kg and the inhibition in vivo at 40 mg/kg was 92%.
For `[O-][n+]1ccccc1SCc1nc2ccccc2[nH]1` [Example 7] the same measures were 19 mg/kg and 95%.
For `O=C(c1ccccc1)c1ccc2nc(CSc3ccccn3)[nH]c2c1` [Example 10, 5-benzoyl-2-(2-pyridylthiomethyl)benzimidazole], in the series with gastric acid secretion, the 50% effective dose (ED50) stood at 14 mg/kg and the inhibition in vivo at 40 mg/kg was 93%.
`O=C(c1ccccc1)c1ccc2nc(C[S+]([O-])c3ccccn3)[nH]c2c1` (centres unmarked) [Example 27, 5-benzoyl-2-(2-pyridylsulfinylmethyl)benzimidazole]: in the series with gastric acid secretion, the ED50 is 7 mg/kg and the inhibition in vivo at 40 mg/kg came out at 95%. The LD50 in series [1] (female mice) was 3200 mg/kg. For the same compound, in series [1] (male mice), the 50% lethal dose (LD50) was 3200 mg/kg.
As to `[O-][S+](Cc1nc2ccccc2[nH]1)c1ccccn1` (centres unmarked) [Example 28, 2-(2-pyridylsulfinylmethyl)benzimidazole], in the series on gastric acid secretion, the median effective dose (ED50) turned out to be 8 mg/kg and the inhibition in vivo at 40 mg/kg amounted to 90%. In series [1] (female mice), this compound yielded an LD50 of 3200 mg/kg. This compound came in with a 50% lethal dose (LD50) in series [1] (male mice) of 3200 mg/kg.
As to `O=[N+]([O-])c1ccc([S+]([O-])Cc2nc3ccccc3[nH]2)nc1` (centres unmarked) [Example 29], in the series with gastric acid secretion, the 50% effect level (ED50) was put at a dose of 4 mg/kg and the inhibition in vivo at 40 mg/kg came out at 90%. In addition, in series [1] (female mice), the LD50 was 2400 mg/kg. In series [1] (male mice), the LD50 turned out to be 2400 mg/kg.
With `Cc1cc2nc(C[S+]([O-])c3ccccn3)[nH]c2cc1C` (centres unmarked) [Example 31], in the series on gastric acid secretion, the ED50 came to 15 mg/kg and the inhibition in vivo at 40 mg/kg stood at 96%. In series [1] (female mice), this compound returned an LD50 of over 6400 mg/kg. Besides, the LD50 in series [1] (male mice) is over 6400 mg/kg.
With `[O-][S+](Cc1nc2cc(Cl)ccc2[nH]1)c1ccccn1` (centres unmarked) [Example 32], in the series with gastric acid secretion, the 50% effect level (ED50) was put at a dose of 17 mg/kg and the inhibition in vivo at 40 mg/kg was determined as 92%.
For `Cc1cnc([S+]([O-])Cc2nc3cc(C(=O)c4ccccc4)ccc3[nH]2)c(C)c1` (centres unmarked) [Example 41] the same measures were 10 mg/kg and 80%.
Turning to `Cc1ccnc([S+]([O-])Cc2nc3cc(C(=O)c4ccccc4)ccc3[nH]2)c1` (centres unmarked) [Example 44], in the series on gastric acid secretion, the ED50 stood at 10 mg/kg and the inhibition in vivo at 40 mg/kg stood at 66%.
In the case of `O=S(=O)(Cc1nc2ccc(Cl)cc2[nH]1)c1ccccn1` [Example 54, 5-chloro-2-(2-pyridylsulfonylmethyl)benzimidazole], in the series with gastric acid secretion, it took a dose of 24 mg/kg to reach the 50% effect level (ED50) and the inhibition in vivo at 40 mg/kg is 70%.
Turning to `Cn1c(C[S+]([O-])c2ccccn2)nc2cc(C(=O)c3ccccc3)ccc21` (centres unmarked) [Example 60, 5-benzoyl-1-methyl-2-(2-pyridylsulfinylmethyl)benzimidazole], in the series with gastric acid secretion, the ED50 came out at 21 mg/kg and the inhibition in vivo at 40 mg/kg came out at 75%.
Consider `CCOC(=O)n1c(C[S+]([O-])c2ccccn2)nc2ccc(C(=O)c3ccccc3)cc21` (centres unmarked) [Example 63, 6-benzoyl-1-carboxyethyl-2-(2-pyridylsulfinylmethyl)benzimidazole], for which, in the series with gastric acid secretion, the median effective dose (ED50) came out at 16 mg/kg and the inhibition in vivo at 40 mg/kg came to 81%.
